Data taken from US11053235B2, “Substituted 1,4-dihydropyrimidines for the treatment of HBV infection or HBV-induced diseases” (Janssen Sciences Ireland Unlimited Company, priority 2018, dated 2021).
Read-outs that look alike come from different tables or passages of the source.

Tests used:
HBV = assay: Anti-viral assay in HepG2.2.15 cells: HBV inhibitory activity (HBV DNA in culture medium by q-PCR); type: cell-based; conditions: Hepatitis B virus, HepG2.2.15, 144 h
In short: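 HepG2.2.15 cells seeded at 40,000/well in 2% FBS medium, dosed next day for 6 days (medium refreshed once midway); 8-point 3-fold dilutions from 10 uM top. HBV DNA in culture medium extracted and quantified by q-PCR; EC50 calculated from dose-response.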

[1] = Cytotoxicity determination in HepG2.2.15 cells (CCK-8); type: cell-based; conditions: human, 6 days treatment, CCK-8, highest concentration 100 uM
In short: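 HepG2.2.15 cells seeded at 5,000 cells/well in 2% FBS medium and exposed to compounds for 6 days (medium refreshed once), 8 three-fold dilutions from 100 uM. Viability read by CCK-8 after 2.5 h at 37 °C, absorbance 450 nm with 630 nm reference; CC50 calculated.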

[2] = HepG2.2.15 cells, 6 days treatment, HBV DNA in culture medium by q-PCR, highest concentration 10 uM, read-out: EC50

Compound	EC50 (HBV; [2]) [nM]	CC50 at 6 days [1] [nM]	EC50 (HBV) [nM]
CCOC(=O)C1=C(C2CCN(c3cnc(C(=O)O)cn3)CC2)NC(c2nccs2)=NC1c1ccc(F)c(F)c1Cl (single isomer, unassigned) [II-51-B, 5-(4-(6-(2-Chloro-3,4-difluorophenyl)-5-(ethoxycarbonyl)-2-(thiazol-2-yl)-3,6-dihydropyrimidin-4-yl)piperidin-1-yl)pyrazine-2-carboxylic Acid]	< 4.6	670	–
CCOC(=O)C1=C(C2CCN(c3cc(C(=O)O)nc(OC)n3)CC2)NC(c2nccs2)=NC1c1ccc(F)c(F)c1Cl (single isomer, unassigned) [II-52-B, 6-(4-(6-(2-Chloro-3,4-difluorophenyl)-5-(ethoxycarbonyl)-2-(thiazol-2-yl)-3,6-dihydropyrimidin-4-yl)piperidin-1-yl)-2-methoxypyrimidine-4-carboxylic Acid]	51	3700	–
CCOC(=O)C1=C(C2CCN(c3cc(C(=O)O)nc(C)n3)CC2)NC(c2nccs2)=NC1c1ccc(F)c(F)c1Cl (single isomer, unassigned) [II-53-B, 6-(4-(6-(2-Chloro-3,4-difluorophenyl)-5-(ethoxycarbonyl)-2-(thiazol-2-yl)-3,6-dihydropyrimidin-4-yl)piperidin-1-yl)-2-methylpyrimidine-4-carboxylic Acid]	98	9050	–
CCOC(=O)C1=C(C2CCN(c3cc(C(=O)O)ncn3)CC2)NC(c2nccs2)=NC1c1ccc(F)c(F)c1Cl (single isomer, unassigned) [II-54-B, 6-(4-(6-(2-Chloro-3,4-difluorophenyl)-5-(ethoxycarbonyl)-2-(thiazol-2-yl)-3,6-dihydropyrimidin-4-yl)piperidin-1-yl)pyrimidine-4-carboxylic Acid]	19	10300	–
CCOC(=O)C1=C(C2CCN(c3ncc([C@]4(O)C[C@@H](C(=O)O)C4)cn3)CC2)NC(c2nccs2)=NC1c1ccc(F)c(F)c1Cl (single isomer, unassigned) [II-55-B, (trans)-3-(2-(4-(6-(2-Chloro-3,4-difluorophenyl)-5-(ethoxycarbonyl)-2-(thiazol-2-yl)-3,6-dihydropyrimidin-4-yl)piperidin-1-yl)pyrimidin-5-yl)-3-hydroxycyclobutanecarboxylic Acid]	< 4.6	7960	–
CCOC(=O)C1=C(C2CCN(c3nc(C)c(C)c(C(=O)O)n3)CC2)NC(c2nccs2)=NC1c1ccc(F)c(F)c1Cl (single isomer, unassigned) [II-56-B, 2-(4-(6-(2-Chloro-3,4-difluorophenyl)-5-(ethoxycarbonyl)-2-(thiazol-2-yl)-3,6-dihydropyrimidin-4-yl)piperidin-1-yl)-5,6-dimethylpyrimidine-4-carboxylic Acid]	22	5540	–
CCOC(=O)C1=C(C2CCN(c3nc(OC)cc(C(=O)O)n3)CC2)NC(c2nccs2)=NC1c1ccc(F)c(F)c1Cl (single isomer, unassigned) [II-57-B, 2-(4-(6-(2-chloro-3,4-difluorophenyl)-5-(ethoxycarbonyl)-2-(thiazol-2-yl)-3,6-dihydropyrimidin-4-yl)piperidin-1-yl)-6-methoxypyrimidine-4-carboxylic Acid]	100	4880	–
CCOC(=O)C1=C(C2CCN(c3nc(C)cc(C(=O)O)n3)CC2)NC(c2nccs2)=NC1c1ccc(F)c(F)c1Cl (single isomer, unassigned) [II-58-B, 2-(4-(6-(2-Chloro-3,4-difluorophenyl)-5-(ethoxycarbonyl)-2-(thiazol-2-yl)-3,6-dihydropyrimidin-4-yl)piperidin-1-yl)-6-methylpyrimidine-4-carboxylic Acid]	37	4800	–
CCOC(=O)C1=C(C2CCN(c3ncc(C(C)C)c(C(=O)O)n3)CC2)NC(c2nccs2)=NC1c1ccc(F)c(F)c1Cl (single isomer, unassigned) [II-59-B, 2-(4-(6-(2-Chloro-3,4-difluorophenyl)-5-(ethoxycarbonyl)-2-(thiazol-2-yl)-3,6-dihydropyrimidin-4-yl)piperidin-1-yl)-5-isopropylpyrimidine-4-carboxylic Acid]	13	8650	–
CCOC(=O)C1=C(C2CCN(c3ncc(CC)c(C(=O)O)n3)CC2)NC(c2nccs2)=NC1c1ccc(F)c(F)c1Cl (single isomer, unassigned) [II-60-B, 2-(4-(6-(2-Chloro-3,4-difluorophenyl)-5-(ethoxycarbonyl)-2-(thiazol-2-yl)-3,6-dihydropyrimidin-4-yl)piperidin-1-yl)-5-ethylpyrimidine-4-carboxylic Acid]	5.9	8920	–
CCOC(=O)C1=C(C2CCN(c3ncc(Cl)c(C(=O)O)n3)CC2)NC(c2nccs2)=NC1c1ccc(F)c(F)c1Cl (single isomer, unassigned) [II-61-B, 5-Chloro-2-(4-(6-(2-chloro-3,4-difluorophenyl)-5-(ethoxycarbonyl)-2-(thiazol-2-yl)-3,6-dihydropyrimidin-4-yl)piperidin-1-yl)pyrimidine-4-carboxylic Acid]	9.1	6680	–
CCOC(=O)C1=C(C2CCN(c3ncc(F)c(C(=O)O)n3)CC2)NC(c2nccs2)=NC1c1ccc(F)c(F)c1Cl (single isomer, unassigned) [II-62-B, 2-(4-(6-(2-Chloro-3,4-difluorophenyl)-5-(ethoxycarbonyl)-2-(thiazol-2-yl)-3,6-dihydropyrimidin-4-yl)piperidin-1-yl)-5-fluoropyrimidine-4-carboxylic Acid]	16	6690	–
CCOC(=O)C1=C(C2CCN(c3ncc(C)c(C(=O)O)n3)CC2)NC(c2nccs2)=NC1c1ccc(F)c(F)c1Cl (single isomer, unassigned) [II-63-B, 2-(4-(6-(2-Chloro-3,4-difluorophenyl)-5-(ethoxycarbonyl)-2-(thiazol-2-yl)-3,6-dihydropyrimidin-4-yl)piperidin-1-yl)-5-methylpyrimidine-4-carboxylic Acid]	21	8280	–
CCOC(=O)C1=C(C2CCN(c3nc(C)c(C(=O)O)o3)CC2)NC(c2nccs2)=NC1c1ccc(F)c(F)c1Cl (single isomer, unassigned) [II-64-B, Lithium 2-(4-(6-(2-chloro-3,4-difluorophenyl)-5-(ethoxycarbonyl)-2-(thiazol-2-yl)-3,6-dihydropyrimidin-4-yl)piperidin-1-yl)-4-methyloxazole-5-carboxylate]	–	6840	75
CCOC(=O)C1=C(C2CCN(c3nccc(C(=O)O)n3)CC2)NC(c2nccs2)=NC1c1ccc(F)c(F)c1Cl (single isomer, unassigned) [II-65-B, 2-(4-(6-(2-chloro-3,4-difluorophenyl)-5-(ethoxycarbonyl)-2-(thiazol-2-yl)-3,6-dihydropyrimidin-4-yl)piperidin-1-yl)pyrimidine-4-carboxylic Acid]	4.6	6640	–
CCOC(=O)C1=C(C2CCN(c3ncc(CCC(=O)O)cn3)CC2)NC(c2nccs2)=NC1c1ccc(F)c(F)c1Cl (single isomer, unassigned) [II-66-B, 3-(2-(4-(6-(2-Chloro-3,4-difluorophenyl)-5-(ethoxycarbonyl)-2-(thiazol-2-yl)-3,6-dihydropyrimidin-4-yl)piperidin-1-yl)pyrimidin-5-yl)propanoic Acid]	7.2	10900	–
CCOC(=O)C1=C(C2CCN(c3ncc(C(C)(C)C(=O)O)cn3)CC2)NC(c2nccs2)=NC1c1ccc(F)c(F)c1Cl (single isomer, unassigned) [II-67-B, 2-(2-(4-(6-(2-Chloro-3,4-difluorophenyl)-5-(ethoxycarbonyl)-2-(thiazol-2-yl)-3,6-dihydropyrimidin-4-yl)piperidin-1-yl)pyrimidin-5-yl)-2-methylpropanoic Acid]	12	2020	–
CCOC(=O)C1=C(C2CCN(c3nc(C(=O)O)c(C)o3)CC2)NC(c2nccs2)=NC1c1ccc(F)c(F)c1Cl (single isomer, unassigned) [II-68-B, 2-(4-(6-(2-Chloro-3,4-difluorophenyl)-5-(ethoxycarbonyl)-2-(thiazol-2-yl)-3,6-dihydropyrimidin-4-yl)piperidin-1-yl)5-methyloxazole-4-carboxylic Acid]	16	8320	–
CCOC(=O)C1=C(C2CCN(c3ncc(CC(=O)O)cn3)CC2)NC(c2nccs2)=NC1c1ccc(F)c(F)c1Cl (single isomer, unassigned) [II-69-B, 2-(2-(4-(6-(2-Chloro-3,4-difluorophenyl)-5-(ethoxycarbonyl)-2-(thiazol-2-yl)-3,6-dihydropyrimidin-4-yl)piperidin-1-yl)pyrimidin-5-yl)acetic Acid]	3.1	4080	–
CCOC(=O)C1=C(C2CCN(c3nc(C(=O)O)co3)CC2)NC(c2nccs2)=NC1c1ccc(F)c(F)c1Cl (single isomer, unassigned) [II-70-B, 2-(4-(6-(2-Chloro-3,4-difluorophenyl)-5-(ethoxycarbonyl)-2-(thiazol-2-yl)-3,6-dihydropyrimidin-4-yl)piperidin-1-yl)oxazole-4-carboxylic Acid]	10	11800	–
CCOC(=O)C1=C(C2CCN(c3nc(C)c(C(=O)O)c(C)n3)CC2)NC(c2nccs2)=NC1c1ccc(F)c(F)c1Cl (single isomer, unassigned) [II-71-B, 2-(4-(6-(2-chloro-3,4-difluorophenyl)-5-(ethoxycarbonyl)-2-(thiazol-2-yl)-3,6-dihydropyrimidin-4-yl)piperidin-1-yl)-4,6-dimethylpyrimidine-5-carboxylic Acid]	20	6330	–
